Laboratory results reported in paper PMC9696794, “Synthesis and Antimicrobial Activity of Short Analogues of the Marine Antimicrobial Peptide Turgencin A: Effects of SAR Optimizations, Cys-Cys Cyclization and Lipopeptide Modifications” (International Journal of Molecular Sciences, 2022).
Where a SMILES comes first, the peptide text is derived from it. The star is where a group is joined. Lauroyl = CCCCCCCCCCCC(=O)*; Decanoyl = CCCCCCCCCC(=O)*; Octanoyl = CCCCCCCC(=O)*

Tests used:
[1] = system: Gram-negative bacterial strains (E. coli and P. aeruginosa); assay: Antibacterial MIC assay, Gram-negative strains together (range or geometric mean); assay type: cell-based; settings: Table S3; MIC >256 set to 256
Experimental: (§1) All cyclic and linear peptides were screened for antibacterial activity against four Gram-positive strains: B. subtilis (Bs, ATCC 23857), C. glutamicum (Cg, ATCC 13032), S. aureus (Sa, ATCC 9144) and S. epidermidis RP62A (Se, ATCC 35984), and two Gram-negative strains: E. coli (Ec, ATCC 25922) and P. aeruginosa (Pa, ATCC 27853). The activity was assessed using a broth microdilution assay according to a modified CLSI-based method. Briefly, overnight bacterial cultures were grown in Mueller–Hinton (MH) broth medium (Difco Laboratories, Detroit, MI, USA) for 2 h at room temperature. The optical density (OD600) was measured, and the bacterial suspensions were adjusted to 2.5–3 × 10^4 CFU/mL in MH medium. The bacterial suspension (50 µL) was distributed in 96-well plates (Nunc, Roskilde, Denmark) preloaded with two-fold dilution series (256 to 1 µg/mL) of peptide solutions (50 µL), giving a final well volume of 100 µL. The microplates were incubated in an EnVision 2103 microplate reader (PerkinElmer, Llantrisant, UK) at 35 °C, with OD595 recorded every hour for 24 h. MIC was defined as the lowest concentration of peptides showing an optical density less than 10% of the negative (growth) control, consisting of bacterial suspension and water. Polymyxin B sulfate (Sigma-Aldrich, St. Louis, MO, USA) and chlorhexidine acetate (CHX, Fresenius Kabi, Halden, Norway), both with concentrations ranging from 12.5 to 0.09 μg/mL, served as positive (growth inhibition) controls. All peptides were tested in triplicate.

E. coli (Ec, ATCC 25922) = assay: microbe, parasite or virus in culture; assay type: cell-based, Escherichia coli; settings: ATCC 25922, 24 h
Experimental: as §1

[2] = system: fungi (A. pullulans, C. albicans, Rhodotorula sp.); assay: Antifungal MIC assay, all fungi together (range or geometric mean); assay type: cell-based; settings: Table S3; MIC >128 set to 128
Experimental: (§2) The synthesized peptides were screened for antifungal activity against the molds A. pullulans (Ap) and Rhodotorula sp. (Rh) (both obtained from Professor Arne Tronsmo, The Norwegian University of Life Sciences, Ås, Norway) and the yeast C. albicans (Ca, ATCC 10231) as previously described. In short, fungal spores were grown in potato dextrose broth media (Difco) containing 2% D(+)-glucose (Merck, Darmstadt, Germany) at 25–30 °C while shaking at 200 rpm overnight. The cultures were diluted with a dextrose media containing glucose to a concentration of approx. 4 × 10^5 spores/mL. Aliquots of the cultures (50 µL) were transferred to 96 well microtiter plates preloaded with the synthetic peptides (50 µL) in two-fold serial dilutions (256 to 1 µg/mL). Polymyxin B and CHX (both with concentrations ranging from 12.5 to 0.09 μg/mL) served as positive antibiotic controls. The microtiter plates containing the fungal spores and the test peptides were incubated at room temperature for 48 h and OD600 was recorded using a Synergy H1 Hybrid microplate reader system (BioTek, Winooski, VT, USA). MIC was defined as the lowest peptide concentration showing an optical density less than 10% of the negative (growth) control. All experiments were performed in triplicate.

[3] = system: Gram-positive bacterial strains; settings: for GM of MIC G+: Table S3, MIC >256 set to 256
Experimental: as §1

[4] = system: P. aeruginosa (Pa, ATCC 27853); assay: microbe, parasite or virus in culture; assay type: cell-based, Pseudomonas aeruginosa; settings: ATCC 27853, 24 h
Experimental: as §1

A. pullulans (Ap) = assay: microbe, parasite or virus in culture; assay type: cell-based, Aurobasidium pollulans; settings: 48 h
Experimental: as §2

Rhodotorula sp. (Rh) = assay: microbe, parasite or virus in culture; assay type: cell-based; settings: 48 h
Experimental: as §2

[5] = system: B. subtilis (Bs, ATCC 23857); assay: microbe, parasite or virus in culture; assay type: cell-based, Bacillus subtilis; settings: ATCC 23857, 24 h
Experimental: as §1

[6] = system: S. aureus (Sa, ATCC 9144); assay: microbe, parasite or virus in culture; assay type: cell-based, Staphylococcus aureus; settings: ATCC 9144, 24 h
Experimental: as §1

[7] = system: C. albicans (Ca, ATCC 10231); assay: microbe, parasite or virus in culture; assay type: cell-based, Candida albicans; settings: ATCC 10231, 48 h
Experimental: as §2

[8] = system: C. glutamicum (Cg, ATCC 13032); assay: microbe, parasite or virus in culture; assay type: cell-based, Corynebacterium glutamicum; settings: ATCC 13032, 24 h
Experimental: as §1

[9] = system: S. epidermidis RP62A (Se, ATCC 35984); assay: microbe, parasite or virus in culture; assay type: cell-based, Staphylococcus epidermidis; settings: ATCC 35984, 24 h
Experimental: as §1

all bacterial strains = assay: Antibacterial MIC assay, all bacterial strains together (range or geometric mean); assay type: cell-based; settings: for GM (geometric mean of the MIC values against all bacterial strains): Table 1, six bacterial strains; for GM of MIC Tot. bact.: Table S3, all bacterial test strains, MIC >256 set to 256
Experimental: The selectivity index (SI) of the peptides towards bacteria over eukaryotic cells was calculated using the geometric mean (GM) of the MIC values against all bacterial test strains, according to the method by Orlov et al.. The SI for each peptide was determined as the ratio of the RBC-EC50 value by the corresponding GM value. Larger SI values indicate greater selectivity for microbial cells. […] In general, the SI was higher against the Gram-positive bacteral strains than the Gram-negative strains. (Table S3). Overall, peptides displaying EC50 < 100 µg/mL were considered too haemolytic to be of interest for further exploration.
as §1

[10] = system: human red blood cells (RBC); assay: Haemolytic activity assay; assay type: cell-based; settings: for Selectivity index (SI) G-: EC50/GM of Gram-negative strains; for Selectivity index (SI) G+: EC50/GM of Gram-positive strains; for Selectivity index (SI) Fungi: EC50/GM of fungi; for SI (selectivity index = EC50/GM): haemolytic EC50 over GM of MIC against all bacterial strains, Table 1; for RBC Tox. (EC50), haemolytic activity: human RBC, 1 h, 37 °C, concentration giving 50% haemolysis
Experimental: The synthetized lipopeptides were screened for haemolytic activity against human red blood cells (RBC), in concentrations ranging from 500 to 3.9 μM, following a previously described protocol. In brief, haemolysis was determined using a heparinizied (10 IU/mL) fraction of freshly drawn human blood. A second fraction of blood, which was collected in test tubes containing ethylenediaminetetraacetic acid (EDTA, Vacutest, KIMA, Arzergrande, Italy), was used for determination of the hematocrit (hct). Plasma was removed from heparinized blood by washing three times with prewarmed phosphate-buffered saline (PBS) before being adjusted to a hematocrit of 4%. Peptides dissolved in dimethyl sulfoxide (DMSO) were further diluted with PBS to a final DMSO content of ≤1%. Triton X-100 (Sigma-Aldrich, St. Louis, MO, USA), used at a final concentration of 0.1%, served as a positive control for 100% haemolysis, whereas 1% DMSO in PBS buffer served as a negative control where no toxicity was detected. Duplicates of test solutions and erythrocytes, with 1% hct final concentration, were prepared in a 96-well polypropylene V-bottom plate (Nunc, Fischer scientific, Oslo, Norway). They were incubated under agitation at 37 °C and 800 rpm for 1 h. After centrifugation (5 min, 3000× g), 100 µL from each well were transferred to a flat-bottomed 96-well plate and absorbance was measured at 545 nm with a microplate reader (SpectraMax 190, Molecular Devices, San Jose, CA, USA). After subtracting PBS background, the percentage of haemolysis was calculated as the ratio of the absorbance in the peptide-treated and surfactant-treated samples. Three independent experiments were performed, and EC50 (the concentration giving 50% haemolysis) values are presented as averages.

[11] = Table S3, highest tested concentration used where EC50 above it

Row | SMILES | GM of MIC G- [1] | Antimicrobial Activity (MIC) Gram − Ec (E. coli (Ec, ATCC 25922)) | GM of MIC Fungi [2] | GM of MIC G+ [3] | Antimicrobial Activity (MIC) Gram − Pa [4] | Antimicrobial Activity (MIC) Fungi Ap (A. pullulans (Ap)) | Antimicrobial Activity (MIC) Fungi Rh (Rhodotorula sp. (Rh)) | Antimicrobial Activity (MIC) Gram + Bs [5] | Antimicrobial Activity (MIC) Gram + Sa [6] | Antimicrobial Activity (MIC) Fungi Ca [7] | Antimicrobial Activity (MIC) Gram + Cg [8] | Antimicrobial Activity (MIC) Gram + Se [9] | GM (geometric mean of the MIC values against all bacterial strains) (all bacterial strains) | GM of MIC Tot. bact. (all bacterial strains) | Selectivity index (SI) G- [10, 11] | Selectivity index (SI) G+ [10, 11] | Selectivity index (SI) Fungi [10, 11] | SI (selectivity index = EC50/GM) [10] | RBC Tox. (EC50), haemolytic activity [10] | other results
1 | CCCCCCCC(=O)N[C@@H](CS)C(=O)NCC(=O)N[C@@H](CCCCN)C(=O)N[C@@H](CCCCN)C(=O)N1CCC[C@H]1C(=O)NCC(=O)NCC(=O)N[C@@H](Cc1c[nH]c2ccccc12)C(=O)N[C@@H](CCCCN)C(=O)N[C@@H](CS)C(=O)N[C@@H](CCCCN)C(=O)N[C@@H](CC(C)C)C(N)=O [Peptide C8-Turg-1, C8- CGKKPGGWKC KL-NH2] (Octanoyl-CGKKPGGWKCKL-NH2) | 64 µg/mL | 32 µg/mL | 40 µg/mL | 19 µg/mL | 128 µg/mL | 32 µg/mL | 16 µg/mL | 8 µg/mL | 128 µg/mL | 128 µg/mL | 4 µg/mL | 32 µg/mL | 29 µg/mL | 29 µg/mL | > 15 | > 50 | > 23 | >33 | >943 µg/mL | 
2 | CCCCCCCC(=O)N[C@@H](CS)C(=O)NCC(=O)N[C@@H](CCCCN)C(=O)N[C@@H](CCCCN)C(=O)N[C@@H](Cc1c[nH]c2ccccc12)C(=O)N[C@@H](Cc1c[nH]c2ccccc12)C(=O)NCC(=O)N[C@@H](Cc1c[nH]c2ccccc12)C(=O)N[C@@H](CCCCN)C(=O)N[C@@H](CS)C(=O)N[C@@H](CCCCN)C(=O)N[C@@H](CC(C)C)C(N)=O [Peptide C8-Turg-2, C8- CGKKWWGWKC KL-NH2] (Octanoyl-CGKKWWGWKCKL-NH2) | 16 µg/mL | 16 µg/mL | 40 µg/mL | 7 µg/mL | 16 µg/mL | 32 µg/mL | 32 µg/mL | 8 µg/mL | 8 µg/mL | 64 µg/mL | 4 µg/mL | 8 µg/mL | 9 µg/mL | 9 µg/mL | 12 | 29 | 5 | 22 | 198 µg/mL | MIC against the Gram-positive bacterial strains ([3]; 2 h): 4 to 8 µg/mL
3 | CCCCCCCCCC(=O)N[C@@H](CS)C(=O)NCC(=O)N[C@@H](CCCNC(=N)N)C(=O)N[C@@H](CCCNC(=N)N)C(=O)N[C@@H](Cc1c[nH]c2ccccc12)C(=O)NCC(=O)N[C@@H](Cc1c[nH]c2ccccc12)C(=O)N[C@@H](Cc1c[nH]c2ccccc12)C(=O)N[C@@H](CCCNC(=N)N)C(=O)N[C@@H](CS)C(=O)N[C@@H](CCCNC(=N)N)C(=O)N[C@@H](CC(C)C)C(N)=O [Peptide C10-Turg-6, C10- CGRRWGWWRC RL-NH2] (Decanoyl-CGRRWGWWRCRL-NH2) | 45 µg/mL |  | 102 µg/mL | 16 µg/mL |  | 128 µg/mL | 128 µg/mL | 8 µg/mL |  | 64 µg/mL | 16 µg/mL | 16 µg/mL | 23 µg/mL | 23 µg/mL |  | 1 |  |  | 21 µg/mL | Selectivity index (SI) Tot. bact. ([10]; Table S3, EC50/GM of all bacterial strains, highest tested concentration used where EC50 above it): 1
4 | CCCCCCCCCCCC(=O)N[C@@H](CS)C(=O)NCC(=O)N[C@@H](CCCNC(=N)N)C(=O)N[C@@H](CCCNC(=N)N)C(=O)N[C@@H](Cc1c[nH]c2ccccc12)C(=O)NCC(=O)N[C@@H](Cc1c[nH]c2ccccc12)C(=O)N[C@@H](Cc1c[nH]c2ccccc12)C(=O)N[C@@H](CCCNC(=N)N)C(=O)N[C@@H](CS)C(=O)N[C@@H](CCCNC(=N)N)C(=O)N[C@@H](CC(C)C)C(N)=O [Peptide C12-Turg-6, C12- CGRRWGWWRC RL-NH2] (Lauroyl-CGRRWGWWRCRL-NH2) |  |  |  | 19 µg/mL |  | 128 µg/mL | >128 µg/mL | 16 µg/mL |  | 64 µg/mL | 16 µg/mL | 16 µg/mL | 32 µg/mL | 32 µg/mL |  | 2 |  | 1 | 39 µg/mL | 
